Measured values: ChEMBL document CHEMBL1201862, “PubChem BioAssay data set” (2004)
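Assay format: 96-well plates, 48-hour exposure. GI50 = concentration required for 50% inhibition of growth.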 Activity calls are given as the source filed them. Rule as the data show it: active = GI50 up to about 1.1 µM and inactive = higher.

Assays:
Assay in all cases: NCI-60 cell line screen, 48 h
A498 = test system: A498
SF-539 = test system: SF-539
UACC-257 = test system: UACC-257
HCT-116 = test system: HCT-116
CAKI-1 = test system: CAKI-1
LOX IMVI = test system: LOX IMVI
786-0 = test system: 786-0
SN12C = test system: SN12C
HOP-62 = test system: HOP-62
KM12 = test system: KM12
OVCAR-5 = test system: OVCAR-5
M14 = test system: M14
SNB-19 = test system: SNB-19
SNB-78 = test system: SNB-78
K562 = test system: K562
SW-620 = test system: SW-620
SNB-75 = test system: SNB-75
BT-549 = test system: BT-549
DU-145 = test system: DU-145
PC-3 = test system: PC-3

Structure (SMILES)	GI50 (A498)	GI50 (SF-539)	GI50 (UACC-257)	GI50 (HCT-116)	GI50 (CAKI-1)	GI50 (LOX IMVI)	GI50 (786-0)	GI50 (SN12C)	GI50 (HOP-62)	GI50 (KM12)	GI50 (OVCAR-5)	GI50 (M14)	GI50 (SNB-19)	GI50 (SNB-78)	GI50 (K562)	GI50 (SW-620)	GI50 (SNB-75)	GI50 (BT-549)	GI50 (DU-145)	GI50 (PC-3)
CC1=C(N(C)C)C(=O)c2nc3n(c2C1=O)CCC3OC(N)=O (stereo unspecified)	13.2 µM (inactive)	17.5 µM (inactive)	14.2 µM (inactive)	15.4 µM (inactive)	18.5 µM (inactive)	10.9 µM (inactive)	17.1 µM (inactive)	15.2 µM (inactive)	17.6 µM (inactive)	17.2 µM (inactive)	19.6 µM (inactive)	13.6 µM (inactive)	17.5 µM (inactive)	23 µM (inactive)	18.5 µM (inactive)	18.7 µM (inactive)	23.7 µM (inactive)			
CC(N)C(=O)c1ccc(O)cc1 (stereo unspecified)	> 100 µM (inactive)	> 100 µM (inactive)	> 100 µM (inactive)	> 100 µM (inactive)	> 100 µM (inactive)	> 100 µM (inactive)	> 100 µM (inactive)	> 100 µM (inactive)	> 100 µM (inactive)	> 100 µM (inactive)	> 100 µM (inactive)	> 100 µM (inactive)	> 100 µM (inactive)	> 100 µM (inactive)	> 100 µM (inactive)	> 100 µM (inactive)	> 100 µM (inactive)			
Cc1ccc2nc(NC(=O)C(=O)CC(=O)c3cccc4ccccc34)sc2c1	63.5 µM (inactive)	24.7 µM (inactive)	27.2 µM (inactive)		22.2 µM (inactive)	32.2 µM (inactive)	20.2 µM (inactive)	52 µM (inactive)	22.2 µM (inactive)	29.1 µM (inactive)	> 100 µM (inactive)	19.6 µM (inactive)	39.7 µM (inactive)	32.9 µM (inactive)	31.5 µM (inactive)	38.9 µM (inactive)	16.9 µM (inactive)			
COc1cc2c3c(c1OCc1ccccc1)NCCC3NCC2 (stereo unspecified)	> 100 µM (inactive)	> 100 µM (inactive)	> 100 µM (inactive)	> 100 µM (inactive)	> 100 µM (inactive)	> 100 µM (inactive)	> 100 µM (inactive)	> 100 µM (inactive)	> 100 µM (inactive)	> 100 µM (inactive)	> 100 µM (inactive)	> 100 µM (inactive)	> 100 µM (inactive)	> 100 µM (inactive)	> 100 µM (inactive)	> 100 µM (inactive)	43.7 µM (inactive)			
[O-][S+]1c2ccccc2N=C(c2ccc3ccccc3c2)CC1c1ccccc1 (stereo unspecified)	17.4 µM (inactive)	18.4 µM (inactive)	28.1 µM (inactive)	19.1 µM (inactive)	25.1 µM (inactive)	21.1 µM (inactive)		34.4 µM (inactive)	29.3 µM (inactive)	13.9 µM (inactive)	21.5 µM (inactive)	47.2 µM (inactive)	17.9 µM (inactive)	47.3 µM (inactive)	23.7 µM (inactive)	15.3 µM (inactive)	17.1 µM (inactive)			
CCOC(=O)c1c[nH]c2c(ccc3ncccc32)c1=O	> 100 µM (inactive)	> 100 µM (inactive)	> 100 µM (inactive)	> 100 µM (inactive)		> 100 µM (inactive)	> 100 µM (inactive)	> 100 µM (inactive)	> 100 µM (inactive)	> 100 µM (inactive)	> 100 µM (inactive)	> 100 µM (inactive)	> 100 µM (inactive)	> 100 µM (inactive)	> 100 µM (inactive)	> 100 µM (inactive)	> 100 µM (inactive)			
CN(C)c1nc(N(C)C)nc(N(C)CN(C)c2nc(N(C)C)nc(N(C)C)n2)n1	> 100 µM (inactive)	> 100 µM (inactive)	> 100 µM (inactive)	> 100 µM (inactive)	> 100 µM (inactive)	> 100 µM (inactive)	14.9 µM (inactive)	> 100 µM (inactive)	> 100 µM (inactive)	> 100 µM (inactive)	> 100 µM (inactive)	> 100 µM (inactive)	> 100 µM (inactive)	> 100 µM (inactive)	> 100 µM (inactive)	> 100 µM (inactive)	> 100 µM (inactive)			
Cc1c2ccncc2c(C)c2c1[nH]c1ccc(Oc3ccccc3)cc12	5.62 µM (inactive)	1.88 µM (inactive)	2.45 µM (inactive)	2.56 µM (inactive)	3.61 µM (inactive)	1.93 µM (inactive)	1.78 µM (inactive)	1.81 µM (inactive)	1.96 µM (inactive)	2.6 µM (inactive)	1.86 µM (inactive)	1.82 µM (inactive)	10.6 µM (inactive)	2.28 µM (inactive)	1.92 µM (inactive)	2.67 µM (inactive)	2.86 µM (inactive)			
CN1CCN(C)C12C=CC=CC21CC1	> 100 µM (inactive)	> 100 µM (inactive)	> 100 µM (inactive)	> 100 µM (inactive)	> 100 µM (inactive)	> 100 µM (inactive)	> 100 µM (inactive)	> 100 µM (inactive)	> 100 µM (inactive)	> 100 µM (inactive)	> 100 µM (inactive)	> 100 µM (inactive)	> 100 µM (inactive)	> 100 µM (inactive)	> 100 µM (inactive)	> 100 µM (inactive)	> 100 µM (inactive)			
O[C@]12CCCC[C@H]1CCC2	> 100 µM (inactive)	> 100 µM (inactive)	> 100 µM (inactive)	> 100 µM (inactive)	> 100 µM (inactive)	> 100 µM (inactive)	> 100 µM (inactive)	> 100 µM (inactive)	> 100 µM (inactive)	> 100 µM (inactive)	> 100 µM (inactive)	> 100 µM (inactive)	> 100 µM (inactive)	> 100 µM (inactive)	> 100 µM (inactive)	> 100 µM (inactive)	> 100 µM (inactive)			
O=C1/C(=C/c2ccc3c(c2)OCO3)CCC1CN1CCOCC1 (stereo unspecified)	14.8 µM (inactive)	13 µM (inactive)	9.68 µM (inactive)	3.25 µM (inactive)	3.25 µM (inactive)	2.44 µM (inactive)	5.42 µM (inactive)	4.06 µM (inactive)	16.3 µM (inactive)	4.65 µM (inactive)	14 µM (inactive)	4.22 µM (inactive)	15.4 µM (inactive)	9.66 µM (inactive)	2.03 µM (inactive)	2.07 µM (inactive)	14.6 µM (inactive)	18 µM (inactive)	16 µM (inactive)	2.17 µM (inactive)
C[C@]12CC[C@H](O)CC1=CC[C@@H]1C2CC[C@]2(C)C(=O)N(N)C(=O)CC12 (stereo partly specified)	> 100 µM (inactive)	> 100 µM (inactive)	> 100 µM (inactive)	> 100 µM (inactive)	> 100 µM (inactive)	> 100 µM (inactive)	> 100 µM (inactive)	> 100 µM (inactive)	> 100 µM (inactive)	> 100 µM (inactive)	> 100 µM (inactive)	> 100 µM (inactive)	> 100 µM (inactive)	> 100 µM (inactive)	> 100 µM (inactive)	> 100 µM (inactive)	5.38 µM (inactive)			
O=C1c2cccc3cc([N+](=O)[O-])cc(c23)C(=O)N1CCCN1CCN(CCCN2C(=O)c3cccc4cc([N+](=O)[O-])cc(c34)C2=O)CC1	0.272 µM (active)	0.313 µM (active)	0.585 µM (active)	< 0.01 µM (active)	0.0293 µM (active)	0.0234 µM (active)	0.0594 µM (active)	0.08 µM (active)	2.88 µM (inactive)	0.063 µM (active)	1.65 µM (inactive)	0.706 µM (active)	0.122 µM (active)	0.303 µM (active)	0.0232 µM (active)	0.0284 µM (active)	1.38 µM (inactive)			
C[N+](C)(C)CC(=O)N/N=C(\C(=O)NC1=C(Cl)C(=O)c2ccccc2C1=O)C(C#N)c1nc(-c2ccc([N+](=O)[O-])cc2)cs1 (stereo unspecified)	16.9 µM (inactive)	8.38 µM (inactive)	3.18 µM (inactive)	5.78 µM (inactive)	26.2 µM (inactive)	1.69 µM (inactive)	8.63 µM (inactive)	9.42 µM (inactive)	12.7 µM (inactive)	14.6 µM (inactive)	13.1 µM (inactive)	3.15 µM (inactive)	12.9 µM (inactive)	11.3 µM (inactive)	10.8 µM (inactive)	8.15 µM (inactive)	7.23 µM (inactive)	3.77 µM (inactive)	6.08 µM (inactive)	6.89 µM (inactive)
